# Tested on: Staphylococcus epidermidis
# Experiment: Antibacterial activity against Staphylococcus epidermidis ATCC 12228 after 18 to 20 hrs by two-fold microbroth dilution method
# Type: functional
# Conditions: not given
row,SMILES,MIC
1,CC(=O)OC[C@H]1O[C@@H](NC(=S)N/N=C2/C(=O)Nc3c(Br)cc(Br)cc32)[C@H](OC(C)=O)[C@@H](OC(C)=O)[C@@H]1OC(C)=O,1.56 µM

# Tested on: not listed separately
# Experiment: Cytotoxicity against mouse […] cells after 3 days by MTT assay
# Type: functional, cell-based
# Conditions: 72 h
row,SMILES,IC50
1,CC(=O)OC[C@H]1O[C@@H](NC(=S)N/N=C2/C(=O)Nc3c(Br)cc(Br)cc32)[C@H](OC(C)=O)[C@@H](OC(C)=O)[C@@H]1OC(C)=O,18.4 µM

# Tested on: Rattus norvegicus
# Experiment: (§1) Antioxidant activity in CCL4-intoxicated Wistar albino rat assessed as liver cytosolic glutathione peroxidase activity per mg protein at 100 mg/kg, ip administered for 7 consecutive days after DL-alpha-tocopherol acetate treatment followed by CCL4 dosing measured after 24 hrs by H2O2 based spectrophotometric analysis (reference value: 0.28 +/- 0.01 U)
# Type: functional
# Conditions: not given
row,SMILES,Activity
1,CC(=O)OC[C@H]1O[C@@H](NC(=S)N/N=C2/C(=O)Nc3c(Br)cc(Br)cc32)[C@H](OC(C)=O)[C@@H](OC(C)=O)[C@@H]1OC(C)=O,0.31 U

# Tested on: Escherichia coli
# Experiment: Antibacterial activity against Escherichia coli ATCC 25922 after 18 to 20 hrs by two-fold microbroth dilution method
# Type: functional
# Conditions: not given
row,SMILES,MIC
1,CC(=O)OC[C@H]1O[C@@H](NC(=S)N/N=C2/C(=O)Nc3c(Br)cc(Br)cc32)[C@H](OC(C)=O)[C@@H](OC(C)=O)[C@@H]1OC(C)=O,50 µM

# Tested on: not listed separately
# Experiment: Antifungal activity against Saccharomyces cerevisiae SH20 after 72 hrs by agar dilution method
# Type: functional
# Conditions: not given
row,SMILES,MIC
1,CC(=O)OC[C@H]1O[C@@H](NC(=S)N/N=C2/C(=O)Nc3c(Br)cc(Br)cc32)[C@H](OC(C)=O)[C@@H](OC(C)=O)[C@@H]1OC(C)=O,6.25 µM

# Tested on: not listed separately
# Experiment: Cytotoxicity against human Lu1 cells after 3 days by MTT assay
# Type: functional, cell-based
# Conditions: Lu1, 72 h
row,SMILES,IC50
1,CC(=O)OC[C@H]1O[C@@H](NC(=S)N/N=C2/C(=O)Nc3c(Br)cc(Br)cc32)[C@H](OC(C)=O)[C@@H](OC(C)=O)[C@@H]1OC(C)=O,5.53 µM

# Tested on: Aspergillus niger
# Experiment: Antifungal activity against Aspergillus niger 439 after 72 hrs by agar dilution method
# Type: functional
# Conditions: Aspergillus niger, 439, 72 h
row,SMILES,MIC
1,CC(=O)OC[C@H]1O[C@@H](NC(=S)N/N=C2/C(=O)Nc3c(Br)cc(Br)cc32)[C@H](OC(C)=O)[C@@H](OC(C)=O)[C@@H]1OC(C)=O,3.12 µM

# Tested on: Candida albicans
# Experiment: Antifungal activity against Candida albicans ATCC 7754 after 72 hrs by agar dilution method
# Type: functional
# Conditions: ATCC 7754, 72 h
row,SMILES,MIC
1,CC(=O)OC[C@H]1O[C@@H](NC(=S)N/N=C2/C(=O)Nc3c(Br)cc(Br)cc32)[C@H](OC(C)=O)[C@@H](OC(C)=O)[C@@H]1OC(C)=O,6.25 µM

# Tested on: Klebsiella pneumoniae
# Experiment: Antibacterial activity against Klebsiella pneumoniae ATCC 4352 after 18 to 20 hrs by two-fold microbroth dilution method
# Type: functional
# Conditions: not given
row,SMILES,MIC
1,CC(=O)OC[C@H]1O[C@@H](NC(=S)N/N=C2/C(=O)Nc3c(Br)cc(Br)cc32)[C@H](OC(C)=O)[C@@H](OC(C)=O)[C@@H]1OC(C)=O,50 µM

# Tested on: not listed separately
# Experiment: Cytotoxicity against human KB cells after 3 days by MTT assay
# Type: functional, cell-based
# Conditions: 72 h
row,SMILES,IC50
1,CC(=O)OC[C@H]1O[C@@H](NC(=S)N/N=C2/C(=O)Nc3c(Br)cc(Br)cc32)[C@H](OC(C)=O)[C@@H](OC(C)=O)[C@@H]1OC(C)=O,12.8 µM

# Tested on: not listed separately
# Experiment: Cytotoxicity against human SW480 cells after 3 days by MTT assay
# Type: functional, cell-based
# Conditions: SW480, 72 h
row,SMILES,IC50
1,CC(=O)OC[C@H]1O[C@@H](NC(=S)N/N=C2/C(=O)Nc3c(Br)cc(Br)cc32)[C@H](OC(C)=O)[C@@H](OC(C)=O)[C@@H]1OC(C)=O,4.75 µM

# Tested on: Pseudomonas aeruginosa
# Experiment: Antibacterial activity against Pseudomonas aeruginosa […] after 18 to 20 hrs by two-fold microbroth dilution method
# Type: functional
# Conditions: not given
row,SMILES,MIC
1,CC(=O)OC[C@H]1O[C@@H](NC(=S)N/N=C2/C(=O)Nc3c(Br)cc(Br)cc32)[C@H](OC(C)=O)[C@@H](OC(C)=O)[C@@H]1OC(C)=O,50 µM

# Tested on: Rattus norvegicus
# Experiment: as §1, with “catalase” for “glutathione peroxidase”, “assay” for “spectrophotometric analysis”, “220.15” for “0.28”, “11.43” for “0.01”
# Type: functional
# Conditions: not given
row,SMILES,Activity
1,CC(=O)OC[C@H]1O[C@@H](NC(=S)N/N=C2/C(=O)Nc3c(Br)cc(Br)cc32)[C@H](OC(C)=O)[C@@H](OC(C)=O)[C@@H]1OC(C)=O,397.53 U

# Tested on: Klebsiella aerogenes
# Experiment: Antibacterial activity against Enterobacter aerogenes ATCC 13048 after 18 to 20 hrs by two-fold microbroth dilution method
# Type: functional
# Conditions: not given
row,SMILES,MIC
1,CC(=O)OC[C@H]1O[C@@H](NC(=S)N/N=C2/C(=O)Nc3c(Br)cc(Br)cc32)[C@H](OC(C)=O)[C@@H](OC(C)=O)[C@@H]1OC(C)=O,50 µM

# Tested on: Rattus norvegicus
# Experiment: as §1, with “superoxide dismutase” for “glutathione peroxidase”, “xanthine” for “H2O2”, “assay” for “spectrophotometric analysis”, “5.27” for “0.28”, “0.22” for “0.01”
# Type: functional
# Conditions: not given
row,SMILES,Activity
1,CC(=O)OC[C@H]1O[C@@H](NC(=S)N/N=C2/C(=O)Nc3c(Br)cc(Br)cc32)[C@H](OC(C)=O)[C@@H](OC(C)=O)[C@@H]1OC(C)=O,10.89 U

# Tested on: Staphylococcus aureus
# Experiment: Antibacterial activity against Staphylococcus aureus ATCC 11632 after 18 to 20 hrs by two-fold microbroth dilution method
# Type: functional
# Conditions: not given
row,SMILES,MIC
1,CC(=O)OC[C@H]1O[C@@H](NC(=S)N/N=C2/C(=O)Nc3c(Br)cc(Br)cc32)[C@H](OC(C)=O)[C@@H](OC(C)=O)[C@@H]1OC(C)=O,1.56 µM

# Tested on: not listed separately
# Experiment: Antifungal activity against Fusarium oxysporum M42 after 72 hrs by agar dilution method
# Type: functional
# Conditions: not given
row,SMILES,MIC
1,CC(=O)OC[C@H]1O[C@@H](NC(=S)N/N=C2/C(=O)Nc3c(Br)cc(Br)cc32)[C@H](OC(C)=O)[C@@H](OC(C)=O)[C@@H]1OC(C)=O,12.5 µM

# Tested on: Staphylococcus aureus
# Experiment: Antibacterial activity against methicillin-resistant Staphylococcus aureus 198-1 after 18 to 20 hrs by two-fold microbroth dilution method
# Type: functional
# Conditions: not given
row,SMILES,MIC
1,CC(=O)OC[C@H]1O[C@@H](NC(=S)N/N=C2/C(=O)Nc3c(Br)cc(Br)cc32)[C@H](OC(C)=O)[C@@H](OC(C)=O)[C@@H]1OC(C)=O,0.78 µM

# Tested on: Staphylococcus aureus
# Experiment: Antibacterial activity against methicillin-resistant Staphylococcus aureus 198-2 after 18 to 20 hrs by two-fold microbroth dilution method
# Type: functional
# Conditions: not given
row,SMILES,MIC
1,CC(=O)OC[C@H]1O[C@@H](NC(=S)N/N=C2/C(=O)Nc3c(Br)cc(Br)cc32)[C@H](OC(C)=O)[C@@H](OC(C)=O)[C@@H]1OC(C)=O,0.78 µM

# Tested on: not listed separately
# Experiment: Cytotoxicity against human HepG2 cells after 3 days by MTT assay
# Type: functional, cell-based
# Conditions: HepG2, 72 h
row,SMILES,IC50
1,CC(=O)OC[C@H]1O[C@@H](NC(=S)N/N=C2/C(=O)Nc3c(Br)cc(Br)cc32)[C@H](OC(C)=O)[C@@H](OC(C)=O)[C@@H]1OC(C)=O,8.41 µM

# Tested on: Staphylococcus aureus
# Experiment: Antibacterial activity against methicillin-resistant Staphylococcus aureus 198-3 after 18 to 20 hrs by two-fold microbroth dilution method
# Type: functional
# Conditions: not given
row,SMILES,MIC
1,CC(=O)OC[C@H]1O[C@@H](NC(=S)N/N=C2/C(=O)Nc3c(Br)cc(Br)cc32)[C@H](OC(C)=O)[C@@H](OC(C)=O)[C@@H]1OC(C)=O,0.78 µM

# Tested on: not listed separately
# Experiment: Cytotoxicity against mouse NIH/3T3 cells after 3 days by MTT assay
# Type: toxicity, NIH3T3
# Conditions: not given
row,SMILES,IC50 at 3 days
1,CC(=O)OC[C@H]1O[C@@H](NC(=S)N/N=C2/C(=O)Nc3c(Br)cc(Br)cc32)[C@H](OC(C)=O)[C@@H](OC(C)=O)[C@@H]1OC(C)=O,1.53 µM

# Tested on: Bacillus subtilis
# Experiment: Antibacterial activity against Bacillus subtilis ATCC 11774 after 18 to 20 hrs by two-fold microbroth dilution method
# Type: functional
# Conditions: not given
row,SMILES,MIC
1,CC(=O)OC[C@H]1O[C@@H](NC(=S)N/N=C2/C(=O)Nc3c(Br)cc(Br)cc32)[C@H](OC(C)=O)[C@@H](OC(C)=O)[C@@H]1OC(C)=O,1.56 µM

# Tested on: not listed separately
# Experiment: Cytotoxicity against human MCF7 cells after 3 days by MTT assay
# Type: functional, cell-based
# Conditions: MCF7, 72 h
row,SMILES,IC50
1,CC(=O)OC[C@H]1O[C@@H](NC(=S)N/N=C2/C(=O)Nc3c(Br)cc(Br)cc32)[C@H](OC(C)=O)[C@@H](OC(C)=O)[C@@H]1OC(C)=O,2.75 µM

# Source: ChEMBL document CHEMBL3872214, “Synthesis and evaluation of in vivo antioxidant, in vitro antibacterial, MRSA and antifungal activity of novel substituted isatin N-(2,3,4,6-tetra-O-acetyl-β-d-glucopyranosyl)thiosemicarbazones” (Eur J Med Chem, 2016)
